In patent US20160331783A1, “BISAMIDE COMPOUNDS AS ALLOSTERIC EFFECTORS FOR REDUCING THE OXYGEN-BINDING AFFINITY OF HEMOGLOBIN” (THE GENERAL HOSPITAL CORPORATION, priority 2014, published 2016):
“And” between values parts separate entries of the source, which are not always exact repeats. Equal values may be shown once.

Key:
[1] = target: deoxygenated hemoglobin (deoxyHb) (Homo sapiens, UniProt P68871); assay: X-ray crystallography of deoxyHb complexed with Compound 1; format: binding; conditions: PDB 4L7Y, 1.80 Å
Experimental: To obtain unliganded hemoglobin structure in complex with 1, freshly prepared solution of 1 in DMSO was incubated with deoxygenated hemoglobin (deoxyHb) (30-50 mg/mL) for 1 h at a hemoglobin tetramer-1 molar ratio of 1:5, followed by crystallization with a low-salt precipitant (0.2 M sodium acetate trihydrate, 0.1 M sodium cacodylate trihydrate, pH 6.6 and 30% PEG 8000). The crystals were washed in a cryo-protectant solution containing mother liquor and glycerol (3:1 ratio) prior to data collection. The complex crystallized in the orthorhombic space group P21212 with typical cell dimensions a=96 Å, b=98 Å and c=65 Å with one functional tetramer per asymmetric unit.
Diffraction data of all crystals were collected at 100 K with a Rigaku IV ++ image plate detector using a CuKα X-rays (k=1.54 Å) from a MicroMax-007 source fitted with Varimax Confocal optics (Rigaku, The Woodlands, Tex.). The datasets were processed with the d*trek software (Rigaku) and the CCP4 suite of programs.
Initial phase for the deoxyHb-1 complex structure was obtained by a molecular replacement method with the program CNS, using human deoxyHb […] tetramer structure (PDB code 2DN2) as a search model. Subsequent structure refinements were performed with the CNS program. Model building and correction were carried out using the graphic program COOT. […]

[2] = target: T1, purified human hemoglobin (Homo sapiens, UniProt P68871); assay: Oxygen dissociation curve (ODC) of purified hemoglobin, Hemox analyzer, P50; format: biochemical
T1 construct: For experiments with purified hemoglobin, hemoglobin (20 μM as tetramer) was dissolved in DPBS
Experimental: The ODC of hemoglobin was measured with a Hemox analyzer (TCS Scientific Corporation) at 37° C. For experiments with purified hemoglobin, hemoglobin (20 μM as tetramer) was dissolved in DPBS and antifoam (0.2 vol %, Catalog No. AFA-25, TCS Scientific Corporation) was added to prevent foaming of the sample. Compounds were prepared in DMSO stock solutions then added to hemoglobin. The final concentration of DMSO was adjusted to 5 vol %. For experiments with RBCs, blood was drawn from volunteers into EDTA tubes. The blood was centrifuged for 15 min at 3,000 rpm at 4° C. The supernatant was discarded, and RBCs were washed three times with DPBS, pH 7.4 by dilution to 50% hematocrit. The washed RBCs were then diluted with Hemox solution (mixture of N-[Tris(hydroxymethyl)methyl]-2-aminoethanesulfonic acid (TES, 30 mM), sodium chloride (135 mM), and potassium chloride (5 mM) in water (pH 7.4), TCS Scientific Corporation), and mixed with the test compound stock solutions. When known allosteric effectors NEM (400 μM), 5HMF (2 mM) or formamidine disulfide (400 μM) were mixed with RBCs (20 μM as hemoglobin tetramer) for 1 h at 37° C., P50 was reduced to 8 Torr, 9 Torr, and 9 Torr respectively, which correlated with previous reports (see Garel et al., European Journal of Biochemistry, 1982, 123, 513-519). Data was analyzed by two-tailed, unpaired Student's t test using Microsoft Excel 2007.
A saturating effect on P50 was first determined by adding an increasing concentration of 2,3-DPG and IHP. No increase of P50 of hemoglobin was observed after an addition of a 30-fold molar excess of 2,3-DPG or IHP to hemoglobin. Hemoglobin (20 μM as tetramer) was pre-incubated with either 2,3-DPG (600 μM) or IHP (600 μM) followed by addition of Compound 1 (0, 50, 100, 150 and 200 μM) to the hemoglobin.

[3] = test system: RBCs; assay: Hemolysis of RBCs / blood on incubation with compound; format: cell-based, human; conditions: compound 20 μM in DPBS with 5% DMSO

Increase of P50 of hemoglobin, dose dependence ([2]; FIG. 3, FIG. 6-7): concentration-dependent
P50 of hemoglobin ([2]; hemoglobin 20 μM tetramer, compound 200 μM, DPBS pH 7.4, 5 vol % DMSO, 37° C., hemoglobin alone 17 Torr): 24 Torr and 24±0.4 Torr
P50 of hemoglobin pre-saturated with 2,3-DPG plus Compound 1 ([2]; hemoglobin 20 μM, 2,3-DPG 600 μM, Compound 1 200 μM): 29±0.5 Torr
Synergistic reduction of oxygen binding affinity in combination with 2,3-DPG ([2]; hemoglobin 20 μM, 2,3-DPG 600 μM, Compound 1 up to 200 μM): synergistic reduction
Synergistic reduction of oxygen binding affinity in combination with IHP ([2]; hemoglobin 20 μM, IHP 600 μM, Compound 1 up to 200 μM): did not induce a synergistic reduction
P50 with purified hemoglobin ([2]; hemoglobin 20 μM, tested compound 120 μM, purified hemoglobin alone 17 Torr): 24 Torr
SMILES: Cc1cc(C)cc(C(=O)N(C)[C@H](Cc2ccc(-c3ccccc3)cc2)C(=O)N[C@@H](Cc2c[nH]c3ccccc23)C(=O)O)c1 [Compound 1, (S)-2-((R)-3-([1,1′-biphenyl]-4-yl)-2-(N,3,5-trimethylbenzamido)propanamido)-3-(1H-indol-3-yl)propanoic acid]
Binding site in deoxyHb crystal structure [1]: non-covalently binds at the β-cleft on the dyad axis
Hemolysis of RBCs [3]: hemolysis
